Measurements as given in patent US6486143B2, “6-amino- or 6-hydrazino-sulphonyl-3-quinolynyl-phosphonic acid compounds” (Les Laboratoires Servier, priority 2000, dated 2002).

melting point: > 260 °C
SMILES: O=c1[nH]c2cc(C(F)(F)F)c(S(=O)(=O)N3CCCCC3)cc2cc1P(=O)(O)O [Example 32, 2-Oxo-6-(1-piperidylsulphonyl)-7-(trifluoromethyl)-1,2-dihydro-3-quinolylphosphonic Acid]
